Assay results reported in patent publication US5656591A, “Antimicrobial agents and method for treating products therewith” (Morinaga Milk Industry Co., Ltd., priority 1992, dated 1997).

Columns and labels:
[1] = test system: Staphylococcus aureus JCM2151; experiment: Test for antimicrobial activity (turbidity): growth inhibiting concentration of antibiotics; assay type: cell-based; settings: for MIC: Staphylococcus aureus
Protocol: (§1) Precultures of test microorganisms to be used in the tests described hereunder were prepared in such a manner that: from the frozen preservation of dispersions of test microorganisms, a loop of the respective strains of the microorganisms were taken out and spread onto TRI PETIT CASE SOYA AGAR MEDIA (by BBL Company), and incubated at 37° C. for 16 hours; the colonies grown on the culture media were scraped by a platinum loop and cultivated in 2.1% Mueller-Hington Broth (by Difco Company) respectively for several hours at 37° C. The resultant microbial cultures at logarithmic phase in 3×10^8 /ml of microbial concentration were used as the precultures.
(§2) The test media to be used in the respective tests were prepared in such a manner that: aqueous solutions in a predetermined concentration of the lactoferrin hydrolysates or the lactoferrin-derived antimicrobial peptides of (1) and (2) in Preparation of Samples (supra), as well as the samples of antibiotics of (3) (supra) were respectively sterilized with filters (by Advantec Company); then a quantity of the resultant solutions of respective samples were selectively added to a quantity of basal medium (Mueller-Hington Broth) prepared in the eventual concentration of 2.1%, thereby combinations of the samples and their concentrations in the respective test media were adjusted as specified in the respective tests.
(§3) Antimicrobial activity was examined as follows: A quantity of the respective precultures prepared in (1) immediately above was diluted with 2.1% Mueller-Hington Broth to result in 2×10^6 /ml of microbial concentration; 100 μl aliquots of the resultant liquid were added to 100 μl aliquots of one of the test media as specified in the respective test; the resultant media were incubated at 37° C. for 16 hours; then the turbidity of the resultant culture broths were measured thereby antimicrobial activity was examined.
(§4) Components in the test and control media and eventual concentrations thereof were adjusted by properly combining 0 mg, 0.4 mg, 1.6 mg and 6.4 mg/ml of lactoferrin hydrolysate of (1) (in Preparation of Samples, supra). or 0 μg, 16 μg, 64 μg, and 256 μg/ml of lactoferrin-derived antimicrobial peptides of (2) (in Preparation of Samples, supra), and 0 μg, 0.01 μg, 0.1 μg, 1 μg, and 10 μg/ml of antibiotics of (3) (supra), then antimicrobial activity of the combined use of the components against Escherichia coli 0-111 and Staphylococcus aureus (JCM2151) as well as growth inhibiting concentrations of the antibiotics were investigated.

Escherichia coli 0-111 = experiment: as above; assay type: cell-based
Protocol: as §1, §2, §3, §4

[2] = JCM2151, antimicrobial peptide (Seq. ID No. 27) 0 μg/ml
[3] = JCM2151, antimicrobial peptide (Seq. ID No. 27) 16 μg/ml
[4] = JCM2151, antimicrobial peptide (Seq. ID No. 27) 64 μg/ml
[5] = JCM2151, antimicrobial peptide (Seq. ID No. 27) 256 μg/ml
[6] = lactoferrin hydrolysate 0 mg/ml
[7] = lactoferrin hydrolysate 0.4 mg/ml
[8] = lactoferrin hydrolysate 1.6 mg/ml
[9] = lactoferrin hydrolysate 6.4 mg/ml
[10] = Escherichia coli, 0111, antimicrobial peptide (Seq. ID No. 27) 0 μg/ml
[11] = Escherichia coli, 0111, antimicrobial peptide (Seq. ID No. 27) 16 μg/ml
[12] = Escherichia coli, 0111, antimicrobial peptide (Seq. ID No. 27) 64 μg/ml
[13] = Escherichia coli, 0111, antimicrobial peptide (Seq. ID No. 27) 256 μg/ml
[14] = antimicrobial peptide (Seq. ID No. 27) 0 μg/ml
[15] = antimicrobial peptide (Seq. ID No. 27) 16 μg/ml
[16] = antimicrobial peptide (Seq. ID No. 27) 64 μg/ml
[17] = antimicrobial peptide (Seq. ID No. 27) 256 μg/ml

For CC1(C)S[C@@H]2[C@H](NC(=O)[C@H](N)c3ccccc3)C(=O)N2[C@H]1C(=O)O [ampicillin], the MIC [1, 2] was over 1 µg/mL, the MIC [1, 3] was 1 µg/mL and the MIC [1, 4] was 1 µg/mL. For the same molecule, the MIC [1, 5] was 0.1 µg/mL, the “Growth inhibiting Concentration of antibiotics” value (from here on “Growth inhibiting Concentration”) [1, 6] was over 1 µg/mL and the “Growth inhibiting Concentration” value [1, 7] was 1 µg/mL. For the same molecule, the “Growth inhibiting Concentration” value [1, 8] was 1 µg/mL, the “Growth inhibiting Concentration” value [1, 9] was 0.1 µg/mL and the MIC (Escherichia coli 0-111; [10]) was over 1 µg/mL. It also gave an MIC (Escherichia coli 0-111; [11]) of 1 µg/mL, an MIC (Escherichia coli 0-111; [12]) of 1 µg/mL and an MIC (Escherichia coli 0-111; [13]) of 0.1 µg/mL. The “Growth inhibiting Concentration” value (Escherichia coli 0-111; [6]) was over 1 µg/mL, the “Growth inhibiting Concentration” value (Escherichia coli 0-111; [7]) was 1 µg/mL and the “Growth inhibiting Concentration” value (Escherichia coli 0-111; [8]) was 1 µg/mL. The “Growth inhibiting Concentration” value (Escherichia coli 0-111; [9]) was 0.01 µg/mL.

CC(=O)OCC1=C(C(=O)O)N2C(=O)[C@@H](NC(=O)Cc3cccs3)[C@H]2SC1 [cephalothin] gave an MIC [1, 2] of over 1 µg/mL, an MIC [1, 3] of 1 µg/mL and an MIC [1, 4] of 1 µg/mL. For the same molecule, the MIC [1, 5] was 0.01 µg/mL, the “Growth inhibiting Concentration” value [1, 6] was over 1 µg/mL and the “Growth inhibiting Concentration” value [1, 7] was 1 µg/mL. For the same molecule, the “Growth inhibiting Concentration” value [1, 8] was 1 µg/mL, the “Growth inhibiting Concentration” value [1, 9] was 0.01 µg/mL and the MIC (Escherichia coli 0-111; [10]) was over 1 µg/mL. The MIC (Escherichia coli 0-111; [11]) was over 1 µg/mL, the MIC (Escherichia coli 0-111; [12]) was 1 µg/mL and the MIC (Escherichia coli 0-111; [13]) was 0.01 µg/mL. For the same molecule, the “Growth inhibiting Concentration” value (Escherichia coli 0-111; [6]) was over 1 µg/mL, the “Growth inhibiting Concentration” value (Escherichia coli 0-111; [7]) was over 1 µg/mL and the “Growth inhibiting Concentration” value (Escherichia coli 0-111; [8]) was 1 µg/mL. The “Growth inhibiting Concentration” value (Escherichia coli 0-111; [9]) was 0.01 µg/mL.

In the case of O=C(N[C@H](CO)[C@H](O)c1ccc([N+](=O)[O-])cc1)C(Cl)Cl [chloramphenicol], the MIC [1, 2] is reported as over 1 µg/mL, the MIC [1, 3] is reported as over 1 µg/mL and the MIC [1, 4] is reported as 1 µg/mL. For the same molecule, the MIC [1, 5] was 1 µg/mL, the “Growth inhibiting Concentration” value [1, 6] was over 1 µg/mL and the “Growth inhibiting Concentration” value [1, 7] was over 1 µg/mL. For the same molecule, the “Growth inhibiting Concentration” value [1, 8] was over 1 µg/mL, the “Growth inhibiting Concentration” value [1, 9] was 1 µg/mL and the MIC (Escherichia coli 0-111; [10]) was over 1 µg/mL. The MIC (Escherichia coli 0-111; [11]) was over 1 µg/mL, the MIC (Escherichia coli 0-111; [12]) was 1 µg/mL and the MIC (Escherichia coli 0-111; [13]) was 0.1 µg/mL. For the same molecule, the “Growth inhibiting Concentration” value (Escherichia coli 0-111; [6]) was over 1 µg/mL, the “Growth inhibiting Concentration” value (Escherichia coli 0-111; [7]) was over 1 µg/mL and the “Growth inhibiting Concentration” value (Escherichia coli 0-111; [8]) was over 1 µg/mL. For the same molecule, the “Growth inhibiting Concentration” value (Escherichia coli 0-111; [9]) was 0.1 µg/mL.

With CC[C@H]1OC(=O)[C@H](C)[C@@H](O[C@H]2C[C@@](C)(OC)[C@@H](O)[C@H](C)O2)[C@H](C)[C@@H](O[C@@H]2O[C@H](C)C[C@H](N(C)C)[C@H]2O)[C@](C)(O)C[C@@H](C)C(=O)[C@H](C)[C@@H](O)[C@]1(C)O [erythromycin] the MIC [1, 2] was over 1 µg/mL, the MIC [1, 3] was 1 µg/mL and the MIC [1, 4] was 1 µg/mL. For the same molecule, the MIC [1, 5] was 0.01 µg/mL, the “Growth inhibiting Concentration” value [1, 6] was over 1 µg/mL and the “Growth inhibiting Concentration” value [1, 7] was 1 µg/mL. The “Growth inhibiting Concentration” value [1, 8] was 1 µg/mL, the “Growth inhibiting Concentration” value [1, 9] was 0.01 µg/mL and the MIC (Escherichia coli 0-111; [10]) was over 1 µg/mL. It also gave an MIC (Escherichia coli 0-111; [11]) of 1 µg/mL, an MIC (Escherichia coli 0-111; [12]) of 1 µg/mL and an MIC (Escherichia coli 0-111; [13]) of 0.01 µg/mL. The “Growth inhibiting Concentration” value (Escherichia coli 0-111; [6]) was over 1 µg/mL, the “Growth inhibiting Concentration” value (Escherichia coli 0-111; [7]) was 1 µg/mL and the “Growth inhibiting Concentration” value (Escherichia coli 0-111; [8]) was 1 µg/mL. For the same molecule, the “Growth inhibiting Concentration” value (Escherichia coli 0-111; [9]) was 0.1 µg/mL.

CN(C)[C@@H]1C(=O)C(C(N)=O)=C(O)[C@@]2(O)C(=O)C3=C(O)c4c(O)cccc4C(C)(O)[C@H]3C[C@@H]12 (some centres unmarked) [hostacyclin] was tested, and the “Growth inhibiting Concentration” value [1, 14] was 1 µg/mL, the “Growth inhibiting Concentration” value [1, 15] was 1 µg/mL and the “Growth inhibiting Concentration” value [1, 16] was 1 µg/mL. For the same molecule, the “Growth inhibiting Concentration” value [1, 17] was 0.1 µg/mL, the “Growth inhibiting Concentration” value [1, 6] was 1 µg/mL and the “Growth inhibiting Concentration” value [1, 7] was 1 µg/mL. The “Growth inhibiting Concentration” value [1, 8] was 1 µg/mL, the “Growth inhibiting Concentration” value [1, 9] was 0.1 µg/mL and the “Growth inhibiting Concentration” value (Escherichia coli 0-111; [14]) was 1 µg/mL. The “Growth inhibiting Concentration” value (Escherichia coli 0-111; [15]) was 1 µg/mL, the “Growth inhibiting Concentration” value (Escherichia coli 0-111; [16]) was 1 µg/mL and the “Growth inhibiting Concentration” value (Escherichia coli 0-111; [17]) was 0.1 µg/mL. For the same molecule, the “Growth inhibiting Concentration” value (Escherichia coli 0-111; [6]) was 1 µg/mL, the “Growth inhibiting Concentration” value (Escherichia coli 0-111; [7]) was 1 µg/mL and the “Growth inhibiting Concentration” value (Escherichia coli 0-111; [8]) was 1 µg/mL. The “Growth inhibiting Concentration” value (Escherichia coli 0-111; [9]) was 0.1 µg/mL.
